Legend:
GrhO10 [1] = target: T1, GrhO10 (Streptomyces sp. JP95, UniProt Q8KSW1); assay: HPLC, UPLC-HRMS/MS of product […]; type: biochemical; conditions: 4a/4b generated in situ by cascade (GrhO5, GrhO1, NADPH); redox form not resolved; low turnover
T1 construct: recombinant from E. coli, Ni-NTA purified (His-tag)
T1 sequence (Q8KSW1 1-249): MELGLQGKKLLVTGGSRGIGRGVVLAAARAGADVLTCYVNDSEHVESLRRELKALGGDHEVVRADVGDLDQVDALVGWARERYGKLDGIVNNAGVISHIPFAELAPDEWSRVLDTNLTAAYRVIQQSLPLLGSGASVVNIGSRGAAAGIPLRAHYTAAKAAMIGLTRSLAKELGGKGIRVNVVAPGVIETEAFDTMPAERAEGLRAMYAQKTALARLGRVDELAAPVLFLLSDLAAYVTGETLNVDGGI

GrhO6 [2] = target: T2, GrhO6 (Streptomyces sp. JP95, UniProt Q8KSX5, K425M); assay: HPLC assay, 5a/5b formation; type: biochemical; conditions: with HyalJ; activity similar to wild type; substrate not named explicitly for the variant
T2 construct: recombinant, purified; group A FAD monooxygenase; acetylated at K5 by HyalJ in some assays

GrhO6 [3] = target: T3, GrhO6 (Streptomyces sp. JP95, UniProt Q8KSX5); assay: HPLC time course in cascade; type: biochemical; conditions: NADPH, GrhO5, GrhO1, with HyalJ; 4a generated in situ from 3b
T3 construct: recombinant, purified; group A FAD monooxygenase; acetylated at K5 by HyalJ in some assays
T3 sequence (Q8KSX5 1-520): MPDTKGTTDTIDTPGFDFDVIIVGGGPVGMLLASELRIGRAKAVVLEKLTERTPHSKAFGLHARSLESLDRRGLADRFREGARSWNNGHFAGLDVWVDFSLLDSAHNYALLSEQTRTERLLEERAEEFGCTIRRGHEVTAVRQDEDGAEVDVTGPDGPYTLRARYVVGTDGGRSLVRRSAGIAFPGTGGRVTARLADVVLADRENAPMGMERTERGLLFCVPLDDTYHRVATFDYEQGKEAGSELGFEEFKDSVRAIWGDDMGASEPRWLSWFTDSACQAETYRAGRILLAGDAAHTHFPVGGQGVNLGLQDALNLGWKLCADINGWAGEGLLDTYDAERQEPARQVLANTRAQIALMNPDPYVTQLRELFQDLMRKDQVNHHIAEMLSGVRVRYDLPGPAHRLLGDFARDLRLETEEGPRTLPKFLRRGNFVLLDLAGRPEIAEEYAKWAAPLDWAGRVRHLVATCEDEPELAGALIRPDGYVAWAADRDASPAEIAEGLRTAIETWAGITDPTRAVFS

GrhO6 [4] = target: T4, GrhO6 (Streptomyces sp. JP95, UniProt Q8KSX5, K57M); assay: HPLC assay, 5a/5b formation; type: biochemical; conditions: with HyalJ; activity similar to wild type; substrate not named explicitly for the variant
T4 construct: recombinant, purified; group A FAD monooxygenase; acetylated at K5 by HyalJ in some assays

GrhO6 [5] = target: T3, GrhO6; assay: turnover before digest and UPLC-HRMS; type: biochemical; conditions: with AcCoA and HyalJ
HyalO10 = target: T5, HyalO10 (Streptomyces hyaluromycini, UniProt Z9NP16K308); assay: HPLC coupled cascade assay, 6a/6b formation; type: biochemical; conditions: 5a/5b generated in situ (GrhO5, GrhO1, GrhO6, HyalJ, NADPH); redox form not resolved
T5 construct: heterologously produced and purified; hyaluromycin gene cluster, homologue of GrhO10
T5 sequence (Z9NP16K308 1-249): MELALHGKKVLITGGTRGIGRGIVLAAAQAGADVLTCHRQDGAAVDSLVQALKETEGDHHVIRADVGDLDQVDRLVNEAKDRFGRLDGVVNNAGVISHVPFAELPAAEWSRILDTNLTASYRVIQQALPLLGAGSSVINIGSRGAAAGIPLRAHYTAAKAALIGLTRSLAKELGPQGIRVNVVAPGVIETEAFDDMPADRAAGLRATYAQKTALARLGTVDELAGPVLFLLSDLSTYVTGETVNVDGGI

GrhO10 [6] = target: T1, GrhO10; assay: HPLC time course of 6b formation; type: biochemical; conditions: isolated 5b
HyalJ = target: T6, HyalJ (Streptomyces hyaluromycini, UniProt Z9LXF2D8B5); assay: co-purification from E. coli, UPLC-HRMS of released ligand; type: binding; conditions: acyl donor
T6 construct: recombinant from E. coli, N-terminal GB1 solubility tag; GNAT, homologue of GrhJ
T6 sequence (Z9LXF2D8B5 1-325): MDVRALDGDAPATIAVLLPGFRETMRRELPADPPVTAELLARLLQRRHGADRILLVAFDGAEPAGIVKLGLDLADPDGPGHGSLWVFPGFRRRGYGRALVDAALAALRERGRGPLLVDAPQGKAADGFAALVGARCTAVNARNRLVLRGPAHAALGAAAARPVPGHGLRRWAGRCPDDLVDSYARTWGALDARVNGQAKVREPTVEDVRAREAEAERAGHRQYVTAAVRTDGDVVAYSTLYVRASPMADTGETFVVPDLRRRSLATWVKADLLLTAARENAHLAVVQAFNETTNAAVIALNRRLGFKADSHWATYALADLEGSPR

GrhO6 [7] = target: T3, GrhO6; assay: HPLC enzyme assay; type: biochemical; conditions: inhibitor of turnover of 4a(b); 8 produced in situ, its structure only inferred from MS
[8] = equal effect to AcCoA with apo HyalJ

T2 sequence (Q8KSX5 entry or part of it K425M): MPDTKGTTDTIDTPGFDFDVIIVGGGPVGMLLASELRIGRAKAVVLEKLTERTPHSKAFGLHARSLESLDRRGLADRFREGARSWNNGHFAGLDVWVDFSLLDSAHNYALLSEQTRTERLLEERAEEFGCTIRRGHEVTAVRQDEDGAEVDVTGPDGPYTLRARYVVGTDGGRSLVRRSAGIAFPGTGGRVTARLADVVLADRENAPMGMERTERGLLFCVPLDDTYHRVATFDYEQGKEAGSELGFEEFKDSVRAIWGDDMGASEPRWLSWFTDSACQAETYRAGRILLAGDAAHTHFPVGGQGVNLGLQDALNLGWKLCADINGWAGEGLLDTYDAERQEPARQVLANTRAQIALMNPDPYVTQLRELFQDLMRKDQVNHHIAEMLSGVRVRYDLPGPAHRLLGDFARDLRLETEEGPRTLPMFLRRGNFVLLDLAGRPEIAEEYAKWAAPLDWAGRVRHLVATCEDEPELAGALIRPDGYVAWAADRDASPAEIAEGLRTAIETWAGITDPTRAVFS
T4 sequence (Q8KSX5 entry or part of it K57M): as the sequence (Q8KSX5 entry or part of it K425M) above, with K57M, M425K counted along it

COc1cc(O)c2c(O)c3c(c(O)c2c1O)C(=O)OC1(CCc2cc4cc(C)oc(=O)c4c(O)c2O1)C3=O (centres unmarked) [4a, dihydrolenticulone]
HPLC, UPLC-HRMS/MS of product 8 (GrhO10 [1]): ketoreductases are also capable of catalyzing keto reduction of 4a/4b | HPLC assay, 5a/5b formation (GrhO6 [2]): both were able to mediate the generation of 5a/5b in the presence of HyalJ | HPLC time course in cascade (GrhO6 [3]): Compound 4a is then further converted into 5a/5b | HPLC assay, 5a/5b formation (GrhO6 [4]): both were able to mediate the generation of 5a/5b in the presence of HyalJ

COC1=CC(=O)c2c(O)c3c(c(O)c2C1=O)C(=O)OC1(CCc2cc4cc(C)oc(=O)c4c(O)c2O1)C3=O (centres unmarked) [4b, lenticulone]
turnover before digest and UPLC-HRMS (GrhO6 [5]): GrhO6 after turnover of 4b in the presence of AcCoA and HyalJ

COc1cc(O)c2c(O)c3c(c(O)c2c1O)OC1(CCc2cc4cc(C)oc(=O)c4c(O)c2O1)C3=O (centres unmarked) [5a, dihydro-7,8-dideoxy-6-oxo-griseorhodin C]
HPLC coupled cascade assay, 6a/6b formation (HyalO10): When GrhO10 was substituted for HyalO10 in the enzymatic assays, 6a/6b was formed

COC1=CC(=O)c2c(O)c3c(c(O)c2C1=O)OC1(CCc2cc4cc(C)oc(=O)c4c(O)c2O1)C3=O (centres unmarked) [5b, 7,8-dideoxy-6-oxo-griseorhodin C]
HPLC time course of 6b formation (GrhO10 [6]): the enzymatic formation of 6b was clearly observed in the presence of GrhO10

CC(=O)SCCNC(=O)CCNC(=O)[C@H](O)C(C)(C)COP(=O)(O)OP(=O)(O)OC[C@H]1O[C@@H](n2cnc3c(N)ncnc32)[C@H](O)[C@@H]1OP(=O)(O)O [acetyl-CoA]
co-purification from E. coli, UPLC-HRMS of released ligand (HyalJ; acetylates GrhO6 at K5, restores activity of apo HyalJ): which clearly confirmed the presence of AcCoA

COc1cc(O)c2c(O)c3c(c(O)c2c1O)C(=O)OC1(CCc2cc4cc(C)oc(=O)c4c(O)c2O1)C3O (centres unmarked) [compound 8, 8]
HPLC enzyme assay (GrhO6 [7]): GrhO6 showed strongly decreased activity on 4a(b) even in the presence of only small amounts

CC(C(=O)O)C(=O)SCCNC(=O)CCNC(=O)[C@H](O)C(C)(C)COP(=O)(O)OP(=O)(O)OC[C@H]1O[C@@H](n2cnc3c(N)ncnc32)[C@H](O)[C@@H]1OP(=O)(O)O (some centres unmarked) [methylmalonyl-CoA]
co-purification from E. coli, UPLC-HRMS of released ligand (HyalJ; [8]): also with almost identical amounts of propionyl-CoA and methylmalonyl-CoA

CCC(=O)SCCNC(=O)CCNC(=O)[C@H](O)C(C)(C)COP(=O)(O)OP(=O)(O)OC[C@H]1O[C@@H](n2cnc3c(N)ncnc32)[C@H](O)[C@@H]1OP(=O)(O)O [propionyl-CoA]
co-purification from E. coli, UPLC-HRMS of released ligand (HyalJ; [8]): also with almost identical amounts of propionyl-CoA and methylmalonyl-CoA

— publication PMC9215129, “An acetyltransferase controls the metabolic flux in rubromycin polyketide biosynthesis by direct modulation of redox tailoring enzymes” (Chemical Science, 2022)
